# Results as given in ChEMBL document CHEMBL1201862, “PubChem BioAssay data set” (2004).
# Calls of active or inactive are those of the source.
# What was measured:
# SUMO E1/E2 = SUMO E1/E2 (Homo sapiens, UniProt P63279+Q9UBE0+Q9UBT2); assay: SAR analysis of SUMOylation using HTRF in an in-Vitro dose response assay. [Related pubchem assays (depositor defined):AID2006, AID2011, AID2018, AID2069, AID2658]; type: functional
# Caspase-6 = biological target: T1, Caspase-6 (Homo sapiens, UniProt P55212); assay: human caspase-6 inhibitors, dose response, biochemical, VEID-R110 fluorescence, cherry-pick (AID 720632)
# T1 sequence (P55212 whole entry): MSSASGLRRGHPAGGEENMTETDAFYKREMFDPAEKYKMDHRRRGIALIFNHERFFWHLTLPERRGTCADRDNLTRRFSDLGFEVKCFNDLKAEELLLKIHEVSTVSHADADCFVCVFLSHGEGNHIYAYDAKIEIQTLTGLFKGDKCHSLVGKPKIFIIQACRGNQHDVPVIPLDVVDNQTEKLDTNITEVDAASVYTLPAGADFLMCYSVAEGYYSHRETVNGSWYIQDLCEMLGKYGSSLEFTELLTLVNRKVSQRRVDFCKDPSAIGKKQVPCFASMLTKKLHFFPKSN
# [1] = biological target: Eukaryotic translation initiation factor 4E (Mus musculus, UniProt P63073); assay: eIF4E–eIF4G protein interaction inhibitors, dose response, biochemical, TR-FRET (AID 855); type: functional;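 further: potency for disrupting eIF4E binding to eIF4GI seen as loss of FRET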
# [2] = biological target: Glutathione-S-transferase (Schistosoma japonicum, UniProt Q26513); assay: biotin-GST/anti-GST TR-FRET signal inhibitors, dose response, artefact control for Vif-APOBEC3G degradation inhibitor project, biochemical (AID 1117362); type: functional
# [3] = cytotoxicity toward NIH3T3 fibroblasts, dose response, counter-screen, cell-based, ATP luminescence, mouse fibroblasts (AID 2010); type: functional;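 further: cells exposed to compound for about 90 hours before reading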
# Caspase-3 = biological target: T2, Caspase-3 (Homo sapiens, UniProt P42574); assay: SAR Analysis of small molecule inhibitors of Sentrin-specific proteases (SENPs) using a Caspase-3 Selectivity assay. [Related pubchem assays (depositor defined):AID2540, AID2599, AID434973, AID489001]; type: functional
# T2 sequence (P42574 whole entry): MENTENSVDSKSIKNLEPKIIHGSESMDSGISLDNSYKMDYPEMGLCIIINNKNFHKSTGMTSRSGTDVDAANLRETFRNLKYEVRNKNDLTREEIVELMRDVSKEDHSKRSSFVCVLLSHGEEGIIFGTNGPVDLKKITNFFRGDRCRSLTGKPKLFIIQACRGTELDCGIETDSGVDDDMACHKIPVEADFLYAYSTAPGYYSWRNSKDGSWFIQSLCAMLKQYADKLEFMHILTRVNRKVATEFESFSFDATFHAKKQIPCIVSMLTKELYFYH
# Exodeoxyribonuclease V = Exodeoxyribonuclease V (Escherichia coli (strain K12), UniProt P04993+P07648+P08394); assay: E. coli RecBCD inhibitors, dose response, counter-screen for AddAB inhibitor project, absorbance, V66 E. coli, mutant T4 phage (AID 492957); type: functional, cell-based, Escherichia coli str. K-12 substr. MG1655
# [4] = Counterscreen for AddAB inhibitors: absorbance-based bacterial cell-based high throughput dose response assay for inhibitors of bacterial viability. [Related pubchem assays (depositor defined):AID435030, AID449728, AID449731, AID488942, AID488955, AID488956]; type: functional
# [5] = biological target: 5'-AMP-activated protein kinase catalytic subunit alpha-1 (Homo sapiens, UniProt Q13131); type: functional
# [6] = biological target: Serine/threonine-protein kinase D2 (Homo sapiens, UniProt Q9BZL6); type: functional;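 further: measured against PRKD2 as one member of a kinome-wide kinase profiling panel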
# [7] = biological target: Ribosomal protein S6 kinase beta-1 (Homo sapiens, UniProt P23443); type: functional;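 further: measured as one member of a kinome-wide profiling panel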
# [8] = biological target: Tyrosine-protein kinase receptor TYRO3 (Homo sapiens, UniProt Q06418); type: functional;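 further: TYRO3 value obtained as one member of a kinome-wide profiling panel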
# [9] = biological target: Serine/threonine-protein kinase Chk2 (Homo sapiens, UniProt O96017); type: functional;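 further: CHEK2 entry within a kinome-wide screening panel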
# [10] = biological target: Casein kinase I isoform alpha (Homo sapiens, UniProt P48729); type: functional
# [11] = biological target: Serine/threonine-protein kinase N2 (Homo sapiens, UniProt Q16513); type: functional
# [12] = biological target: Testis-specific serine/threonine-protein kinase 1 (Homo sapiens, UniProt Q9BXA7); type: functional
# [13] = biological target: Non-receptor tyrosine-protein kinase TYK2 (Homo sapiens, UniProt P29597); type: functional
# Misshapen-like kinase 1 = Misshapen-like kinase 1 (Homo sapiens, UniProt Q8N4C8); type: functional;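 further: kinome panel screen with MINK as the panel member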
# [14] = biological target: Protein kinase C iota type (Homo sapiens, UniProt P41743); type: functional;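 further: measured within a kinome-wide kinase panel, PRKCI as panel member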
# Focal adhesion kinase 1 = Focal adhesion kinase 1 (Homo sapiens, UniProt Q05397); type: functional;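 further: measured as one member of a kinome panel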
# [15] = biological target: Interleukin-1 receptor-associated kinase 1 (Homo sapiens, UniProt P51617); type: functional;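 further: IRAK1 tested as one member of a kinome panel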
# [16] = biological target: Interleukin-1 receptor-associated kinase 4 (Homo sapiens, UniProt Q9NWZ3); type: functional
# [17] = biological target: Tyrosine-protein kinase Fer (Homo sapiens, UniProt P16591); type: functional;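 further: FER tested as one member of a kinome panel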
# [18] = biological target: Calcium/calmodulin-dependent protein kinase type 1 (Homo sapiens, UniProt Q14012); type: functional
# [19] = biological target: Tyrosine-protein kinase Fyn (Homo sapiens, UniProt P06241); type: functional
# [20] = biological target: Serine/threonine-protein kinase pim-2 (Homo sapiens, UniProt Q9P1W9); type: functional;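 further: value comes from a broad kinase panel profiling study in which PIM2 was one of the panel members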
# [21] = biological target: Serine/threonine-protein kinase Nek2 (Homo sapiens, UniProt P51955); type: functional
# Sequence of Serine/threonine-protein kinase Nek2 (P51955 whole entry): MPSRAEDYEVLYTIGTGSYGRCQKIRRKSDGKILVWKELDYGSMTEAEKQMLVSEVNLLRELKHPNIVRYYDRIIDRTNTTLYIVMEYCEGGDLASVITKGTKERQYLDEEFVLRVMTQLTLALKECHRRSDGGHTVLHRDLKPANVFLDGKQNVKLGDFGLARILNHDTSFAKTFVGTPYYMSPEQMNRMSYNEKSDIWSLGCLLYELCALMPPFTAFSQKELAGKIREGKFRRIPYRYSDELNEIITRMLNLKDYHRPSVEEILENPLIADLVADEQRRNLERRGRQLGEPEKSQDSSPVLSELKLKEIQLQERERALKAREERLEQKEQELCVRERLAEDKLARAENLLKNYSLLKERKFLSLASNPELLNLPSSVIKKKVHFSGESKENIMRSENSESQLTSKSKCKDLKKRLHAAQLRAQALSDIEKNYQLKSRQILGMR
# Sequence of Calcium/calmodulin-dependent protein kinase type 1 (Q14012 whole entry): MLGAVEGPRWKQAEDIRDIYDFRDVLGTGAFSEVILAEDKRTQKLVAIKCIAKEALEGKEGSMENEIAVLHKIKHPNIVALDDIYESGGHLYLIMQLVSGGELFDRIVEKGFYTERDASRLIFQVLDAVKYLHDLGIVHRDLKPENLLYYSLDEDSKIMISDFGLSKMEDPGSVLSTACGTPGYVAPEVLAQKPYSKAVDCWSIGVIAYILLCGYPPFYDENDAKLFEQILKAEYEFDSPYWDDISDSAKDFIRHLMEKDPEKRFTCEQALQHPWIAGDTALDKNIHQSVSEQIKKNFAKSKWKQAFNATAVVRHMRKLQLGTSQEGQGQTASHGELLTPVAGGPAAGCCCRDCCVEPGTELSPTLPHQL
# Sequence of Misshapen-like kinase 1 (Q8N4C8 whole entry): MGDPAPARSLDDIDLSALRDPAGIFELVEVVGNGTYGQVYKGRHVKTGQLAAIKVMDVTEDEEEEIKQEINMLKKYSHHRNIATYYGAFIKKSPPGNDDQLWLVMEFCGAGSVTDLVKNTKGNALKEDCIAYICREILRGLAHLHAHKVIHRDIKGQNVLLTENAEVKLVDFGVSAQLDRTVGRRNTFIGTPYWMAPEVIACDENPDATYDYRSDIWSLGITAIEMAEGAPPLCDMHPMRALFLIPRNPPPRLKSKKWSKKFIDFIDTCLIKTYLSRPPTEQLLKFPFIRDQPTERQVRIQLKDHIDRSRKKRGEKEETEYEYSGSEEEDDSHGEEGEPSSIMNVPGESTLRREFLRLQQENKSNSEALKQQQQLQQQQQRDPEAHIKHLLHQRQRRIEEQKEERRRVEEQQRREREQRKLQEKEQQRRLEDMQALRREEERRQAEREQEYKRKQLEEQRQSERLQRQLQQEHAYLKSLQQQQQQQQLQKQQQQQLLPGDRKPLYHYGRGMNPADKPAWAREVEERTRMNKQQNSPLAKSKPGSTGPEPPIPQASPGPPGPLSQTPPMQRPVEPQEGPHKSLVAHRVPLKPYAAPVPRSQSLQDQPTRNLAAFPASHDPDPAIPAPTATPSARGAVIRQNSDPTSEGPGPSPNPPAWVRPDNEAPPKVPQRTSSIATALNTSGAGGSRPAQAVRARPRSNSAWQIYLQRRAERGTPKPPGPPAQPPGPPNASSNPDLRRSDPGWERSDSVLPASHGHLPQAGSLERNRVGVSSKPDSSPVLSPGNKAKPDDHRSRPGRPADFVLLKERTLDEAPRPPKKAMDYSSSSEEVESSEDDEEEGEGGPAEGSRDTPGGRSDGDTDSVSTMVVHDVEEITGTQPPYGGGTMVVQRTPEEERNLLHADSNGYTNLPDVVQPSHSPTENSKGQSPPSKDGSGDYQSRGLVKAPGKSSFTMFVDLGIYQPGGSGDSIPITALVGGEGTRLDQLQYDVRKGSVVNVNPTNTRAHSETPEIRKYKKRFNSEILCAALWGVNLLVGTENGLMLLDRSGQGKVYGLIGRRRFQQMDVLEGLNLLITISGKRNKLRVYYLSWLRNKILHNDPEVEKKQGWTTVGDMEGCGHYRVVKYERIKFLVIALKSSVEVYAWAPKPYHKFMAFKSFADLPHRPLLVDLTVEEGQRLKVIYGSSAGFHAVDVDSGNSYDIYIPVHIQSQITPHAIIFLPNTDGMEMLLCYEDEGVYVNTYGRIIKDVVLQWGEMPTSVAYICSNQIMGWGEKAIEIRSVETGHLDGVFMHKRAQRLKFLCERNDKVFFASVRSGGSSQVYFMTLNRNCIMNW
# Sequence of Eukaryotic translation initiation factor 4E (P63073 whole entry): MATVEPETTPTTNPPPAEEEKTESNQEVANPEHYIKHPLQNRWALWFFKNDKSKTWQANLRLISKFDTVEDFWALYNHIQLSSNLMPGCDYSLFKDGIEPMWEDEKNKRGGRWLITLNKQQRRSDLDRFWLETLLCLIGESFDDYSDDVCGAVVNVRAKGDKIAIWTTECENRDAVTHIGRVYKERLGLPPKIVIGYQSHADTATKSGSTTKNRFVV
# Sequence of Testis-specific serine/threonine-protein kinase 1 (Q9BXA7 whole entry): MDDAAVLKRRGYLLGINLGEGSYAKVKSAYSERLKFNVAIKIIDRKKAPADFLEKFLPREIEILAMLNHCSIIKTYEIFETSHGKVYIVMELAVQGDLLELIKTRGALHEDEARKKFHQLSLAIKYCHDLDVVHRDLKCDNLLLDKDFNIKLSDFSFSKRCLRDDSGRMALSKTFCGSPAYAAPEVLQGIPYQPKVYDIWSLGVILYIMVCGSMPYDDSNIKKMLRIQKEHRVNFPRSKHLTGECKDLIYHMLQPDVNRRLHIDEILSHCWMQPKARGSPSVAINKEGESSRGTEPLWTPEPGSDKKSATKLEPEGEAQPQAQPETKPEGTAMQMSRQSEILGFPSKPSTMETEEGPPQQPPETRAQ
# Sequence of Tyrosine-protein kinase receptor TYRO3 (Q06418 whole entry): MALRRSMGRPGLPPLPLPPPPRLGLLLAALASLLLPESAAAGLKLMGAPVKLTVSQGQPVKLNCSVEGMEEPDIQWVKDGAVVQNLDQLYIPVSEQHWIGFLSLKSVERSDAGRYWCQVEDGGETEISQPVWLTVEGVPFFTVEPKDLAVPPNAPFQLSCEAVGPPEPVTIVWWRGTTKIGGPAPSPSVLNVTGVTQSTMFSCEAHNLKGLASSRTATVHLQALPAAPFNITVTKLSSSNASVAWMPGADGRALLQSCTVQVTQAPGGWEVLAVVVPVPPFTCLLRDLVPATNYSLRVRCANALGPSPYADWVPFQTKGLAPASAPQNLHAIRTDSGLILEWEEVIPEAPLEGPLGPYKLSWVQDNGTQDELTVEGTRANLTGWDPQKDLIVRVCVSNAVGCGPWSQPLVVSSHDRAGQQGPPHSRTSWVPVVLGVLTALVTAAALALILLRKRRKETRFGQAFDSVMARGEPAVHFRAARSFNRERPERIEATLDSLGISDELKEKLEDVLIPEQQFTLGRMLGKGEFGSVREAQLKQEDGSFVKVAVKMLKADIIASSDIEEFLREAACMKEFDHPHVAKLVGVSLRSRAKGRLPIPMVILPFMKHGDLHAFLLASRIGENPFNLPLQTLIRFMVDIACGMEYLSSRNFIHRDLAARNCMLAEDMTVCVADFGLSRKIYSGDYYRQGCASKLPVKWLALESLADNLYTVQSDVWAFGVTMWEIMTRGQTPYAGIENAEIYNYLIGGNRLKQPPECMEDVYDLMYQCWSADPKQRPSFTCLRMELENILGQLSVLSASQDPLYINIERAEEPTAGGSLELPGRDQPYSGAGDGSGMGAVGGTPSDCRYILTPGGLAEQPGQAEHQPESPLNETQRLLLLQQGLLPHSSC
# Sequence of Protein kinase C iota type (P41743 whole entry): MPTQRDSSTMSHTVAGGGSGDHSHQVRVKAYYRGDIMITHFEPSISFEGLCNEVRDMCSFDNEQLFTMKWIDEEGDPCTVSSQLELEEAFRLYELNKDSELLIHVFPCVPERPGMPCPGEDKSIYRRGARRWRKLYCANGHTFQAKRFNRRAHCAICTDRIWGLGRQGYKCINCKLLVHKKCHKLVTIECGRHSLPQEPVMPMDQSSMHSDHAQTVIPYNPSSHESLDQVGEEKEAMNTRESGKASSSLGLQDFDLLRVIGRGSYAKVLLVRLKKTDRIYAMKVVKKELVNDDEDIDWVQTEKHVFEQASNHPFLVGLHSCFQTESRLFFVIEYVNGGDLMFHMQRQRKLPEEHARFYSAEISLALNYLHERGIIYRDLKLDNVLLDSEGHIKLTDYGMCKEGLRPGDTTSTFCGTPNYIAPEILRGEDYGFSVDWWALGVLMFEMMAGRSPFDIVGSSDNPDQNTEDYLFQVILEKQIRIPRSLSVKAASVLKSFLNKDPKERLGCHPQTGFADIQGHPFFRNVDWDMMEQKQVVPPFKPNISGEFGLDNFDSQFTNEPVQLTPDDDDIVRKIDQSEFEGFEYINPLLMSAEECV
# Sequence of 5'-AMP-activated protein kinase catalytic subunit alpha-1 (Q13131 whole entry): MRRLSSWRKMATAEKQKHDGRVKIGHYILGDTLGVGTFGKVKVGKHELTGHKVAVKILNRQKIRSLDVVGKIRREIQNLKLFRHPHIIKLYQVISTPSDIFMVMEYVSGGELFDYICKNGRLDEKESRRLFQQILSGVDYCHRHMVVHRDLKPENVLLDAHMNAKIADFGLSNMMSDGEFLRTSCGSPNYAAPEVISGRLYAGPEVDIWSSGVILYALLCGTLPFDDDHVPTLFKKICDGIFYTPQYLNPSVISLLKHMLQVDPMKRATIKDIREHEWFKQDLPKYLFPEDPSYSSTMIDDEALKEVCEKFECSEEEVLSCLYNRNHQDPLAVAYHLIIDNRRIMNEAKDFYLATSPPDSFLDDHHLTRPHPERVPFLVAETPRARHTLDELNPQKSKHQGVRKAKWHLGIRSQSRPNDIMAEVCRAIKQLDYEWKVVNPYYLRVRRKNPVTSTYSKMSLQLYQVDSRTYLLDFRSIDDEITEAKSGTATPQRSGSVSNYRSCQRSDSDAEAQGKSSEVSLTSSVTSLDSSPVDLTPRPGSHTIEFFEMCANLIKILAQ
# Sequence of Glutathione-S-transferase (Q26513 whole entry): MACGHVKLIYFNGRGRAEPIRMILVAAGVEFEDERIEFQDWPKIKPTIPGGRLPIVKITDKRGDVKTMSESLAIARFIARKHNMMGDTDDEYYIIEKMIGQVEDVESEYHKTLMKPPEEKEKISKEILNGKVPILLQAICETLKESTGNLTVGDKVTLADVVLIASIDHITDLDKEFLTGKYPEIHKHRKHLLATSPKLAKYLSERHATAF
structure (smiles),measurement,setting,value
CC(=O)NC1C(=O)N(CCN2CCOCC2)c2ccc(F)cc21 (stereo not drawn),IC50,SUMO E1/E2,13.4 µM (active)
same,AC50,Caspase-6,16 µM (active)
O=C(O)C1Nc2c(O)cc(Cl)c([N+](=O)[O-])c2C2C=CCC12 (stereo not drawn),IC50,[1],5.21 µM (active)
same,IC50,[2],> 100 µM (active)
O=C(CCc1ccccc1)NNc1cc(N2CCCCC2)nc(N2CCCCC2)n1,EC50,[3],> 60 µM (not active)
same,IC50,Caspase-3,> 99 µM (inactive)
Oc1ccc(N=Nc2c(O)ccc3ccccc23)cc1,IC50,Exodeoxyribonuclease V,> 118 µM (inactive)
same,IC50,[4],> 118 µM (inactive)
Cc1n[nH]c2ccc(-c3cncc(OCC(N)Cc4cccc(Cl)c4)c3)cc12 (stereo not drawn),Ki,[5],0.01 µM (active)
same,Ki,[6],0.0398 µM (active)
same,Ki,[7],0.0794 µM (active)
same,Ki,[8],> 2 µM (inactive)
same,Ki,[9],0.631 µM (active)
same,Ki,[10],0.126 µM (active)
same,Ki,[11],0.0158 µM (active)
same,Ki,[12],0.1 µM (active)
same,Ki,[13],> 2 µM (inactive)
same,Ki,Misshapen-like kinase 1,0.0251 µM (active)
same,Ki,[14],1 µM (active)
same,Ki,Focal adhesion kinase 1,> 1.58 µM (inactive)
same,Ki,[15],1.26 µM (active)
same,Ki,[16],0.158 µM (active)
same,Ki,[17],> 1.58 µM (inactive)
same,Ki,[18],0.1 µM (active)
same,pKi,[18],7
same,Ki,[19],> 0.794 µM (inactive)
same,Ki,[20],0.01 µM (active)
same,Ki,[21],> 10 µM (inactive)
